How the values were obtained:
Assay in all cases: MTT proliferation assay, single agent
Format in all cases: cell-based
H460 = settings: Homo sapiens, NCI-H460, Lung ADC, KRAS, 72 h, mean of several independent experiments
Method: (§1) The compound of formula (1) was tested using a Thiazolyl Blue Tetrazolium Bromide (MTT) proliferation assay in a panel of tumor cell lines of different origins.
(§2) All culture materials were obtained from Biological Industries (Kibbutz Beit Haemek, Israel) or Invitrogen (Paisley, Scotland, United Kingdom). The non-tumor cell lines HF and HACAT were provided by Vall d'Hebrón Hospital and GmbH, respectively. The PC9 naïve cell line was provided by Mayumi Ono and, the H3122, HCC78 and 11-18 by Daniel Costa. The PC9-GR1, PC9-GR2, PC9-GR3, PC9-GR4, PC9-GR5 and PC9-ER cell lines were derived in house by exposing the parental PC9 cell line to increasing concentrations of erlotinib (ER) or gefitinib (GR). The rest of the cell lines in which compound (1) was tested were purchased from ATCC (H23, H1975, H2228, A549, H460, Calu-6, H1650, SK-MES-1, EBC1, SNU1, AGS, N87, PC3, BxPC3, DLD1, HT29, SW48, SCC9,FaDu, AU565, Gingival, Prostate, SU-DHL-1 and A431). All cell lines were maintained in RPMI medium supplemented with 10% FBS, 50 µg/mL penicillin-streptomycin and 2 mM L-Glutamine. All cells were grown in a humidified atmosphere with 5% CO2 at 37°C.
(§3) Cell viability in response to single agent treatment was assessed by the Thiazolyl Blue Tetrazolium Bromide (MTT) (Sigma, St Louis, MO) assay. Cells from each cell line were seeded at 2000 to 10000 per well in 96-well plates. […] After treatment, cells were incubated with medium containing MTT (0.75 mg/mL in medium) for 1-2 h at 37°C. Culture medium with MTT was removed and formazan crystals reabsorbed in 100 µL DMSO (Sigma, St. Louis, MO). Cell viability was determined by measuring the absorbance at 492 nm, using a microplate reader (BioWhittaker, Walkersville, MD).
(§4) The IC50s shown are the mean of several independent experiments. Standard errors are also listed Table 2. SCC means squamous cell carcinoma, ADC means adenocarcinoma, GBM means glioblastoma.

SK-MES-1 = settings: Homo sapiens, SCC Lung, DDR2 wt, 72 h, mean of several independent experiments
Method: as §1, §2, §3, §4

DLD1 = settings: Homo sapiens, DLD-1, Colon ADC, KRAS, 72 h, mean of several independent experiments
Method: as §1, §2, §3, §4

H3122 = settings: Homo sapiens, NCI-H3122, Lung ADC, ALK-EML4 (v1), 72 h, mean of several independent experiments
Method: as §1, §2, §3, §4

HT29 = settings: Homo sapiens, HT-29, Colon ADC, BRAF V600E, 72 h, mean of several independent experiments
Method: as §1, §2, §3, §4

PC9-GR4 = settings: Lung ADC, EGFR ex19, 72 h, mean of several independent experiments
Method: as §1, §2, §3, §4

PC3 = settings: Homo sapiens, PC-3, Prostate ADC, DDR2 wt, 72 h, no standard error printed
Method: as §1, §2, §3, §4

PC9-GR5 = settings: Lung ADC, EGFR ex19, 72 h, mean of several independent experiments
Method: as §1, §2, §3, §4

HCC366 = settings: SCC Lung, DDR2 mutated, 72 h, mean of several independent experiments
Method: as §1, §2, §3, §4

H1650 = settings: Homo sapiens, NCI-H1650, Lung ADC, EGFR ex19, 72 h, mean of several independent experiments
Method: as §1, §2, §3, §4

I638F+T654M = settings: SCC Lung, DDR2 mutated, 72 h, mean of several independent experiments
Method: as §1, §2, §3, §4

H1975 = settings: Homo sapiens, NCI-H1975, Lung ADC, EGFR ex21, 72 h, mean of several independent experiments
Method: as §1, §2, §3, §4

L239R+T654M = settings: SCC Lung, DDR2 mutated, 72 h, mean of several independent experiments
Method: as §1, §2, §3, §4

SW48 = settings: Homo sapiens, Colon ADC, EGFR ex18, 72 h, mean of several independent experiments
Method: as §1, §2, §3, §4

A549 = settings: Homo sapiens, Lung ADC, KRAS, 72 h, mean of several independent experiments
Method: as §1, §2, §3, §4

H2228 = settings: Homo sapiens, NCI-H2228, Lung ADC, ALK-EML4 (v3), 72 h, mean of several independent experiments
Method: as §1, §2, §3, §4

## Cn1c(=O)c(-c2c(Cl)cccc2Cl)cc2c(N)nc(Nc3ccccc3)nc21 [Compound (1), 4-amino-6-(2,6-dichlorophenyl)-8-methyl-2-(phenylamino)-pyrido[2,3-d]pyrimidin-7(8H)-one]
H460
  IC50: 1000 nM
SK-MES-1
  IC50: 570 nM
DLD1
  IC50: 1000 nM
H3122
  IC50: 1340 nM
HT29
  IC50: 2000 nM
PC9-GR4
  IC50: 2100 nM
PC3
  IC50: 3400 nM
PC9-GR5
  IC50: 1610 nM
HCC366
  IC50: 830 nM
H1650
  IC50: 2680 nM
I638F+T654M
  IC50: 770 nM
H1975
  IC50: 2070 nM
L239R+T654M
  IC50: 600 nM
SW48
  IC50: 750 nM
A549
  IC50: 490 nM
H2228
  IC50: 1360 nM
